# Data reported in ChEMBL document CHEMBL1150538, “Anti HIV-1 activity of a hydrophilic cyclosporin derivative with improved binding affinity to cyclophilin A” (Bioorg Med Chem Lett, 1996).
# Columns and labels:
# AIK-T4 = assay: In vitro inhibition of the cytopathic effect induced by HIV-1(IIIB) using the human T-cell leukemia virus transformed T4 cell line.; type: functional, cell-based
# Mus musculus = species on record: Mus musculus; assay: In vitro immunosuppressive activity relative to cyclosporin A was determined by using mouse mixed lymphocyte reaction; type: functional
# Jurkat = assay: In vitro immunosuppressive activity relative to cyclosporin A using interleukin-2 reporter gene assay was determined in a Jurkat cell line; type: functional, Homo sapiens
IC50 (AIK-T4),Relative IC50 (Mus musculus),Relative IC50 (Jurkat),Compound
0.12 µg/mL,,,C/C=C/C[C@@H](C)[C@@H](O)[C@H]1C(=O)N[C@@H](CC)C(=O)N(C)[C@H](CO)C(=O)N(C)[C@@H](CC(C)(C)O)C(=O)N[C@@H](C(C)C)C(=O)N(C)[C@@H](CC(C)C)C(=O)N[C@@H](C)C(=O)N[C@H](C)C(=O)N(C)[C@@H](CC(C)C)C(=O)N(C)[C@@H](CC(C)C)C(=O)N(C)[C@@H](C(C)C)C(=O)N1C [listing 1 of 2 here]
,>3333,>770,C/C=C/C[C@@H](C)[C@@H](O)[C@H]1C(=O)N[C@@H](CC)C(=O)N(C)[C@H](CO)C(=O)N(C)[C@@H](CC(C)(C)O)C(=O)N[C@@H](C(C)C)C(=O)N(C)[C@@H](CC(C)C)C(=O)N[C@@H](C)C(=O)N[C@H](C)C(=O)N(C)[C@@H](CC(C)C)C(=O)N(C)[C@@H](CC(C)C)C(=O)N(C)[C@@H](C(C)C)C(=O)N1C [listing 2 of 2 here]
